According to PubChem BioAssay (NCI):
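A five-concentration, 48-hour dose response in 96-well plates underlies each endpoint, interpolated linearly between surrounding concentrations. GI50: concentration for 50% inhibition of growth. At the TGI there is no net growth.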

Columns and labels:
Assay in all cases: NCI anticancer screen, dose series, 48 h; in the data active = GI50 below about 0.43 µM; inactive = the rest
UACC-62 melanoma = tested on: UACC-62 melanoma
OVCAR-5 ovarian = tested on: OVCAR-5 ovarian
A549 NSCLC = tested on: A549 NSCLC
RPMI-8226 leukemia = tested on: RPMI-8226 leukemia
U251 CNS = tested on: U251 CNS
T-47D breast = tested on: T-47D breast
MCF7 breast = tested on: MCF7 breast
SK-MEL-5 melanoma = tested on: SK-MEL-5 melanoma
SNB-19 CNS = tested on: SNB-19 CNS
HT29 colon = tested on: HT29 colon
SNB-75 CNS = tested on: SNB-75 CNS
NCI-H226 lung = tested on: NCI-H226 lung
HCT-15 colon = tested on: HCT-15 colon
BT-549 breast = tested on: BT-549 breast
TK-10 renal = tested on: TK-10 renal
LOX IMVI melanoma = tested on: LOX IMVI melanoma
ACHN renal = tested on: ACHN renal
MOLT-4 leukemia = tested on: MOLT-4 leukemia
HCC-2998 colon = tested on: HCC-2998 colon
MALME-3M melanoma = tested on: MALME-3M melanoma
SW-620 colon = tested on: SW-620 colon
KM12 colon = tested on: KM12 colon
DU-145 prostate = tested on: DU-145 prostate
OVCAR-4 ovarian = tested on: OVCAR-4 ovarian
MDA-MB-435 = tested on: MDA-MB-435
SF-295 CNS = tested on: SF-295 CNS
K-562 leukemia = tested on: K-562 leukemia
PC-3 prostate = tested on: PC-3 prostate
OVCAR-8 ovarian = tested on: OVCAR-8 ovarian
786-0 renal = tested on: 786-0 renal
CCRF-CEM leukemia = tested on: CCRF-CEM leukemia
NCI-H460 lung = tested on: NCI-H460 lung
HCT-116 colon = tested on: HCT-116 colon
CAKI-1 renal = tested on: CAKI-1 renal
EKVX NSCLC = tested on: EKVX NSCLC
SK-OV-3 ovarian = tested on: SK-OV-3 ovarian
SF-539 CNS = tested on: SF-539 CNS
HOP-92 NSCLC = tested on: HOP-92 NSCLC
COLO 205 colon = tested on: COLO 205 colon
RXF 393 renal = tested on: RXF 393 renal
UACC-257 melanoma = tested on: UACC-257 melanoma
SN12C renal = tested on: SN12C renal
UO-31 renal = tested on: UO-31 renal
SF-268 CNS = tested on: SF-268 CNS
SK-MEL-2 melanoma = tested on: SK-MEL-2 melanoma
MDA-MB-231 breast = tested on: MDA-MB-231 breast
HS 578T breast = tested on: HS 578T breast
SK-MEL-28 melanoma = tested on: SK-MEL-28 melanoma
NCI-H522 lung = tested on: NCI-H522 lung
HOP-62 NSCLC = tested on: HOP-62 NSCLC
NCI/ADR-RES ovarian = tested on: NCI/ADR-RES ovarian
IGROV1 ovarian = tested on: IGROV1 ovarian
OVCAR-3 ovarian = tested on: OVCAR-3 ovarian
A498 renal = tested on: A498 renal
M14 melanoma = tested on: M14 melanoma
SR leukemia = tested on: SR leukemia
HL-60(TB) leukemia = tested on: HL-60(TB) leukemia

O=C1c2ccccc2-c2c1c1ccccc1c(=O)n2CCN1CCOCC1
90.3 µM: TGI (CAKI-1 renal)
38.6 µM: TGI (MOLT-4 leukemia)
73.5 µM: TGI (K-562 leukemia)
92 µM: TGI (ACHN renal)
> 100 µM: TGI (UACC-62 melanoma) | TGI (OVCAR-5 ovarian) | TGI (A549 NSCLC) | TGI (RPMI-8226 leukemia) | TGI (U251 CNS) | TGI (T-47D breast) | TGI (MCF7 breast) | TGI (SK-MEL-5 melanoma) | TGI (SNB-19 CNS) | TGI (HT29 colon) | TGI (SNB-75 CNS) | TGI (NCI-H226 lung) | TGI (HCT-15 colon) | TGI (BT-549 breast) | TGI (TK-10 renal) | TGI (LOX IMVI melanoma) | TGI (HCC-2998 colon) | TGI (MALME-3M melanoma) | TGI (SW-620 colon) | TGI (KM12 colon) | TGI (DU-145 prostate) | TGI (OVCAR-4 ovarian) | TGI (MDA-MB-435) | TGI (SF-295 CNS) | TGI (PC-3 prostate) | TGI (OVCAR-8 ovarian) | TGI (786-0 renal) | TGI (CCRF-CEM leukemia) | TGI (NCI-H460 lung) | TGI (HCT-116 colon) | TGI (EKVX NSCLC) | TGI (SK-OV-3 ovarian) | TGI (SF-539 CNS) | TGI (HOP-92 NSCLC) | TGI (COLO 205 colon) | TGI (RXF 393 renal) | TGI (UACC-257 melanoma) | TGI (SN12C renal) | TGI (UO-31 renal) | TGI (SF-268 CNS) | TGI (SK-MEL-2 melanoma) | TGI (MDA-MB-231 breast) | TGI (HS 578T breast) | TGI (SK-MEL-28 melanoma) | TGI (NCI-H522 lung) | TGI (HOP-62 NSCLC) | TGI (NCI/ADR-RES ovarian) | TGI (IGROV1 ovarian) | TGI (OVCAR-3 ovarian)
inactive: GI50 (UACC-62 melanoma) 29.4 µM | GI50 (OVCAR-5 ovarian) > 100 µM | GI50 (A549 NSCLC) 64.8 µM | GI50 (RPMI-8226 leukemia) 39 µM | GI50 (U251 CNS) 52.4 µM | GI50 (T-47D breast) > 100 µM | GI50 (MCF7 breast) 43.7 µM | GI50 (SK-MEL-5 melanoma) 49 µM | GI50 (SNB-19 CNS) > 100 µM | GI50 (HT29 colon) 57.8 µM | GI50 (SNB-75 CNS) > 100 µM | GI50 (NCI-H226 lung) 73.9 µM | GI50 (HCT-15 colon) 78.5 µM | GI50 (BT-549 breast) > 100 µM | GI50 (TK-10 renal) 84.8 µM | GI50 (LOX IMVI melanoma) 40.5 µM | GI50 (ACHN renal) 29.8 µM | GI50 (MOLT-4 leukemia) 14.7 µM | GI50 (HCC-2998 colon) 42.5 µM | GI50 (MALME-3M melanoma) > 100 µM | GI50 (SW-620 colon) 87.6 µM | GI50 (KM12 colon) 61.8 µM | GI50 (DU-145 prostate) > 100 µM | GI50 (OVCAR-4 ovarian) > 100 µM | GI50 (MDA-MB-435) > 100 µM | GI50 (SF-295 CNS) 48.1 µM | GI50 (K-562 leukemia) 25.8 µM | GI50 (PC-3 prostate) > 100 µM | GI50 (OVCAR-8 ovarian) 60.6 µM | GI50 (786-0 renal) > 100 µM | GI50 (CCRF-CEM leukemia) 49.1 µM | GI50 (NCI-H460 lung) 55.4 µM | GI50 (HCT-116 colon) 36 µM | GI50 (CAKI-1 renal) 23.9 µM | GI50 (EKVX NSCLC) 98.8 µM | GI50 (SK-OV-3 ovarian) > 100 µM | GI50 (SF-539 CNS) 84.9 µM | GI50 (HOP-92 NSCLC) > 100 µM | GI50 (COLO 205 colon) > 100 µM | GI50 (RXF 393 renal) 49 µM | GI50 (UACC-257 melanoma) > 100 µM | GI50 (SN12C renal) 94.1 µM | GI50 (UO-31 renal) 64.4 µM | GI50 (SF-268 CNS) > 100 µM | GI50 (SK-MEL-2 melanoma) > 100 µM | GI50 (MDA-MB-231 breast) > 100 µM | GI50 (HS 578T breast) > 100 µM | GI50 (SK-MEL-28 melanoma) > 100 µM | GI50 (NCI-H522 lung) 39.5 µM | GI50 (HOP-62 NSCLC) > 100 µM | GI50 (NCI/ADR-RES ovarian) > 100 µM | GI50 (IGROV1 ovarian) 79.4 µM | GI50 (OVCAR-3 ovarian) 82.2 µM

COc1ccc(OC)c(-c2c(C#N)c(N)nc(N3CCOCC3)c2C#N)c1
97 µM: TGI (CAKI-1 renal)
> 100 µM: TGI (UACC-62 melanoma) | TGI (OVCAR-5 ovarian) | TGI (A549 NSCLC) | TGI (RPMI-8226 leukemia) | TGI (U251 CNS) | TGI (T-47D breast) | TGI (MCF7 breast) | TGI (A498 renal) | TGI (SK-MEL-5 melanoma) | TGI (SNB-19 CNS) | TGI (HT29 colon) | TGI (M14 melanoma) | TGI (SR leukemia) | TGI (NCI-H226 lung) | TGI (HCT-15 colon) | TGI (BT-549 breast) | TGI (TK-10 renal) | TGI (LOX IMVI melanoma) | TGI (ACHN renal) | TGI (MOLT-4 leukemia) | TGI (HCC-2998 colon) | TGI (SW-620 colon) | TGI (KM12 colon) | TGI (DU-145 prostate) | TGI (OVCAR-4 ovarian) | TGI (MDA-MB-435) | TGI (HL-60(TB) leukemia) | TGI (SF-295 CNS) | TGI (K-562 leukemia) | TGI (PC-3 prostate) | TGI (OVCAR-8 ovarian) | TGI (786-0 renal) | TGI (CCRF-CEM leukemia) | TGI (NCI-H460 lung) | TGI (HCT-116 colon) | TGI (EKVX NSCLC) | TGI (SK-OV-3 ovarian) | TGI (SF-539 CNS) | TGI (HOP-92 NSCLC) | TGI (COLO 205 colon) | TGI (RXF 393 renal) | TGI (UACC-257 melanoma) | TGI (SN12C renal) | TGI (UO-31 renal) | TGI (SF-268 CNS) | TGI (SK-MEL-2 melanoma) | TGI (MDA-MB-231 breast) | TGI (HS 578T breast) | TGI (SK-MEL-28 melanoma) | TGI (NCI-H522 lung) | TGI (HOP-62 NSCLC) | TGI (NCI/ADR-RES ovarian) | TGI (IGROV1 ovarian) | TGI (OVCAR-3 ovarian)
57.4 µM: TGI (SNB-75 CNS)
inactive: GI50 (UACC-62 melanoma) 44.5 µM | GI50 (OVCAR-5 ovarian) > 100 µM | GI50 (A549 NSCLC) > 100 µM | GI50 (RPMI-8226 leukemia) > 100 µM | GI50 (U251 CNS) > 100 µM | GI50 (T-47D breast) 45.1 µM | GI50 (MCF7 breast) > 100 µM | GI50 (A498 renal) 52.6 µM | GI50 (SK-MEL-5 melanoma) > 100 µM | GI50 (SNB-19 CNS) > 100 µM | GI50 (HT29 colon) > 100 µM | GI50 (M14 melanoma) > 100 µM | GI50 (SNB-75 CNS) 12.9 µM | GI50 (SR leukemia) 36.3 µM | GI50 (NCI-H226 lung) 85.6 µM | GI50 (HCT-15 colon) > 100 µM | GI50 (BT-549 breast) > 100 µM | GI50 (TK-10 renal) 45 µM | GI50 (LOX IMVI melanoma) > 100 µM | GI50 (ACHN renal) 67.9 µM | GI50 (MOLT-4 leukemia) > 100 µM | GI50 (HCC-2998 colon) 72.7 µM | GI50 (SW-620 colon) > 100 µM | GI50 (KM12 colon) > 100 µM | GI50 (DU-145 prostate) > 100 µM | GI50 (OVCAR-4 ovarian) 43.6 µM | GI50 (MDA-MB-435) > 100 µM | GI50 (HL-60(TB) leukemia) > 100 µM | GI50 (SF-295 CNS) > 100 µM | GI50 (K-562 leukemia) > 100 µM | GI50 (PC-3 prostate) 95.4 µM | GI50 (OVCAR-8 ovarian) 79.1 µM | GI50 (786-0 renal) > 100 µM | GI50 (CCRF-CEM leukemia) > 100 µM | GI50 (NCI-H460 lung) > 100 µM | GI50 (HCT-116 colon) > 100 µM | GI50 (CAKI-1 renal) 43.4 µM | GI50 (EKVX NSCLC) > 100 µM | GI50 (SK-OV-3 ovarian) 11.9 µM | GI50 (SF-539 CNS) > 100 µM | GI50 (HOP-92 NSCLC) 82.5 µM | GI50 (COLO 205 colon) > 100 µM | GI50 (RXF 393 renal) 61.4 µM | GI50 (UACC-257 melanoma) 39.4 µM | GI50 (SN12C renal) 73 µM | GI50 (UO-31 renal) 46 µM | GI50 (SF-268 CNS) > 100 µM | GI50 (SK-MEL-2 melanoma) > 100 µM | GI50 (MDA-MB-231 breast) 40.3 µM | GI50 (HS 578T breast) 87.4 µM | GI50 (SK-MEL-28 melanoma) 82.8 µM | GI50 (NCI-H522 lung) 46.2 µM | GI50 (HOP-62 NSCLC) 65.3 µM | GI50 (NCI/ADR-RES ovarian) > 100 µM | GI50 (IGROV1 ovarian) 73.9 µM | GI50 (OVCAR-3 ovarian) 39.3 µM
